Data on three molecules can be found in patent publication US20210238173A1, “MITOGEN-ACTIVATED PROTEIN KINASE KINASE 7 INHIBITORS” (Yeda Research and Development Co. Ltd., priority 2018, published 2021).

Where “and” joins values, the source holds several entries; their conditions need not be identical. Equal entries are not always repeated.

For assay [1], the system named is pJNK in HEK293 cells. The assay is described as follows: In-cell western (ICW) pJNK inhibition in HEK293. In kind it is cell-based. The note with it: 2 h pre-incubation, sorbitol stimulation.
For assay [2], the system named is pJNK in 3T3 WT cells. The assay is described as follows: In-cell western (ICW) pJNK inhibition in 3T3 WT. Format: cell-based. The note with it: 3T3 WT, sorbitol stimulation. The method, then: HEK293, Beas2B and 3T3 cells were plated 24 hours before procedure on 384 well clear bottom black flat plates (Corning) pre-coated with Fibronectin (Sigma) diluted in PBS to a concentration of 5 μg/ml 45 minutes prior to cells introduction. Cells were plated using Multidrop™ Combi reagent dispenser (Thermo Fisher Scientific). Compound, reagents and antibody dispensing as well as washes were performed with a CyBio liquid handler (Analytik). Cells were pre-incubated with a small molecule or up to 1% DMSO for 2 h before fixation. HEK293, 3T3 or Beas2B cells were treated with 0.6M/0.2M/0.2M D-Sorbitol/PBS (Sigma) for 20/40/40 min. respectively, before fixation. Media was removed and wells were immediately fixed with 150 μl per well of 3.7% formaldehyde/PBS fixing solution for 20 min. Formaldehyde was then aspired and cells were permeabilized with 150 μl of 0.5% Triton x-100/PBS solution for 10 min. After aspiration cells were washed with ice-cold methanol and stored at −20° C., for 10 min. Methanol was aspired and cells were blocked with 150 μl blocking buffer (LICOR) for 90 min. Primary antibody Phospho-SAPK/JNK T183/Y185 (CST; 9251S) was diluted 1:1000 in blocking buffer and was applied 50 μl per well, except control wells to which only blocking buffer was applied, O.N. (16 h) at 4° C. with mild shaking. Primary antibody was aspired, wells were washed with 150 μl 0.1% Tween20/PBS (Sigma) washing solution three times for 7 min. IRDye® 800CW Goat anti-Rabbit IgG Secondary antibody (LICOR) was then diluted 1:1200 in blocking buffer with 50 μl applied per well on control wells only (no CellTag control), then CellTag700 (1:2000) was added to the solution and 50 μl were added to all experiment wells, for 1 h at room temperature. Wells were aspired and washed again with 150 μl 0.1% Tween20/PBS (Sigma) washing solution three times for 7 min. plate was dried and scanned with Odyssey CLx imaging system at 700 nm and 800 nm (Licor). Wells signals were analyzed with Odyssey software. The signal was normalized by the CellTag700 signal.
(§1) To rapidly assess the cellular activity (EC50) with full dose response curves of the MKK7 covalent inhibitors, according to some embodiments of the present invention, an in-cell western assay was adapted to a 384 well plate format over traditional western blot, and monitored phospho-JNK (pJNK) levels in response to osmotic shock. We first characterized the dynamics of pJNK in response to sorbitol. Sufficient dynamic range for pJNK is achieved at 20 minutes in HEK293 cells and at 40 minutes in 3T3 and Beas2B cells. The compound's activity was assessed by pre-treating cells with either compound or DMSO for 2 hours, followed by Sorbitol stimulation. The response of pJNK, and its substrates, pc-Jun and pATF2, was measured, as well as pP38, which is a substrate of MKK4 but not MKK7, and pERK in HEK293 cells, and the results are presented in Table 5 below.
Wildtype 3T3 cells, 3T3 MKK7 double knock-out (MKK7^−/−) cells and MKK4/7 double knockouts (MKK4/7^−/−) were used to validate on target activity of the MKK7 covalent inhibitors presented herein.

In assay [3] the test system is pP38 in HEK293 cells. The assay is described as follows: pP38 response in HEK293 cells. In kind it is cell-based. The settings on record: at 10 μM. The method, then:
as §1
With similar values for pcJun (2.26 μM and 1.67 μM, respectively) and pATF2 (2.79 μM 5.19 μM, respectively).

In assay [4] the target is T1, catalytic domain of MKK7 (Homo sapiens, UniProt O14733).
T1 construct: over-expressing MKK7 (103-426 residues); 6-His (C); made in house; host or cells: E. coli Rosetta2 BL21 (DE3), crude lysate
T1 sequence (O14733 87-410): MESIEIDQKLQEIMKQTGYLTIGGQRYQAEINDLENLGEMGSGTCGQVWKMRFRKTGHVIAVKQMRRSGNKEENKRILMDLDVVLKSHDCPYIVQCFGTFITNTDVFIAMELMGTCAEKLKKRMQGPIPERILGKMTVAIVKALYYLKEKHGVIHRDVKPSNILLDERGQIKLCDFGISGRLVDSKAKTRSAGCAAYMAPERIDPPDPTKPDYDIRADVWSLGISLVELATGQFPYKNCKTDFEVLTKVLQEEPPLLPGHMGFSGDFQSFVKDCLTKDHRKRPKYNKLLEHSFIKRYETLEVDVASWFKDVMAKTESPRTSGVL
The assay is described as follows: Activity based fluorescent labeling in bacterial lysate overexpressing MKK7. Format: binding. The settings on record: pre-incubated with the lysate.

Assay [5] deals with ABL1 (Homo sapiens, UniProt P00519). The assay is described as follows: Kinome selectivity screen ABL1. In kind it is biochemical. The note with it: 1 μM compound. The method, then:
(§2) Kinome Selectivity Screen:
(§3) Kinase selectivity was assessed using the Life Technologies SelectScreen Kinase Profiling Service in a custom panel of 76 kinases selected to provide broad representative coverage of all kinase families. Kinase activity assays employed either the Z′-LYTE or Adapta assay technologies with ATP concentrations at or near the KM, ATP for each kinase and a test compound concentration of 1 μM.

Assay [6] has as its target BTK (Homo sapiens, UniProt Q06187). The assay is described as follows: Kinome selectivity screen BTK. The note with it: 1 μM compound. Format: biochemical. Here is the method: as §2, §3
The target of assay [7] is CDK1/cyclin B (Homo sapiens, UniProt P06493). The assay is described as follows: Kinome selectivity screen CDK1/cyclin B. In kind it is biochemical. The note with it: 1 μM compound. Here is the method: as §2, §3
CDK1/cyclin B, sequence (P06493 whole entry): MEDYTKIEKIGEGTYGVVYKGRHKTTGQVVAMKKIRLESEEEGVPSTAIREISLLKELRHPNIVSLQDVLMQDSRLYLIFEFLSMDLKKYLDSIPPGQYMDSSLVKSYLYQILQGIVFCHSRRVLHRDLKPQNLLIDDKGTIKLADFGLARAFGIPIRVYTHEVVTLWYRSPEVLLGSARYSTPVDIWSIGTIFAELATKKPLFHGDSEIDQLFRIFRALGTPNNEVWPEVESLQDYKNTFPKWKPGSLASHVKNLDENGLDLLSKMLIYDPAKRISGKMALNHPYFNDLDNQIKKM
CDK1/cyclin B, sequence (P14635 whole entry partner): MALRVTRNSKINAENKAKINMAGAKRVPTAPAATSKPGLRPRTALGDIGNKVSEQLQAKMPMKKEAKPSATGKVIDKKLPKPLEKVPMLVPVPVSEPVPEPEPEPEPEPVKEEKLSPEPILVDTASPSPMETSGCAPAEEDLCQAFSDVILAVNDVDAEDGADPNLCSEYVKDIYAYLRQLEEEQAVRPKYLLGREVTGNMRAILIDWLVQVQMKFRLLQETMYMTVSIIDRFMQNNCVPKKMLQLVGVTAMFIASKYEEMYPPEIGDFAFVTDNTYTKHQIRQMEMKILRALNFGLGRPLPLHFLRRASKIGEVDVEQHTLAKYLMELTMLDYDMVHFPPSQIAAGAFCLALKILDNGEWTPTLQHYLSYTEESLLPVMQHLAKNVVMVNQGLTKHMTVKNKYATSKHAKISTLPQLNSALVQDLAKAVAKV
Assay [8] addresses GSK3B (GSK3 beta) (Homo sapiens, UniProt P49841). The assay is described as follows: Kinome selectivity screen GSK3B. The settings on record: 1 μM compound. In kind it is biochemical. The method, then: as §2, §3
Assay [9] concerns the target IKBKB (IKK beta) (Homo sapiens, UniProt O14920). The assay is described as follows: Kinome selectivity screen IKBKB. In kind it is biochemical. The note with it: 1 μM compound. The method, then:
as §2, §3

In assay [10] the target is INSR (Homo sapiens, UniProt P06213). The assay is described as follows: Kinome selectivity screen INSR. Format: biochemical. The settings on record: 1 μM compound. The method, then:
as §2, §3

The target in assay [11] is LCK (Homo sapiens, UniProt P06239). The assay is described as follows: Kinome selectivity screen LCK. Format: biochemical. The settings on record: 1 μM compound. The method, then: as §2, §3
LCK, sequence (P06239 whole entry): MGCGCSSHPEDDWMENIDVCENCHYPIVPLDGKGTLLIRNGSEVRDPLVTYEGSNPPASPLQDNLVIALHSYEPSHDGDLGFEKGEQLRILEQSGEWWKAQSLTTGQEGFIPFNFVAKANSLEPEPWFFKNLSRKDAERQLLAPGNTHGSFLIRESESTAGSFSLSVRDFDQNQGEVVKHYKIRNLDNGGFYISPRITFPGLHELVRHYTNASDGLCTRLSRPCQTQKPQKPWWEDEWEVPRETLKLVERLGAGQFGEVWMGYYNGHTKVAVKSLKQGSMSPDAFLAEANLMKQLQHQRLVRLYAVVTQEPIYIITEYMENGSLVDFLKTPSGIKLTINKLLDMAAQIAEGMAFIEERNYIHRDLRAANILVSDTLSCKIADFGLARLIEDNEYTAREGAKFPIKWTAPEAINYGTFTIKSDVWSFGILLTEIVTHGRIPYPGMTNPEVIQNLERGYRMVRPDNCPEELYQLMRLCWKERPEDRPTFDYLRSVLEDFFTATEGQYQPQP
The target in assay [12] is LRRK2 (Homo sapiens, UniProt Q5S007). The assay is described as follows: Kinome selectivity screen LRRK2. The settings on record: 1 μM compound. In kind it is biochemical. Here is the method: as §2, §3
Assay [13] deals with MAP3K8 (COT) (Homo sapiens, UniProt P41279). The assay is described as follows: Kinome selectivity screen MAP3K8. In kind it is biochemical. The settings on record: 1 μM compound. Here is the method: as §2, §3
Assay [14] has as its target MAP4K4 (HGK) (Homo sapiens, UniProt O95819). The assay is described as follows: Kinome selectivity screen MAP4K4. Format: biochemical. The settings on record: 1 μM compound. The method, then:
as §2, §3

In assay [15] the target is MAPK14 (p38 alpha) (Homo sapiens, UniProt Q16539). Briefly: Kinome selectivity screen MAPK14. The settings on record: 1 μM compound. In kind it is biochemical. The method, then:
as §2, §3

Assay [16] addresses MARK1 (MARK) (Homo sapiens, UniProt Q9P0L2). Briefly: Kinome selectivity screen MARK1. In kind it is biochemical. The note with it: 1 μM compound. The method, then: as §2, §3
Assay [17] deals with PKN1 (PRK1) (Homo sapiens, UniProt Q16512). Briefly: Kinome selectivity screen PKN1. The note with it: 1 μM compound. In kind it is biochemical. The method, then:
as §2, §3

Assay [18] deals with PRKCD (PKC delta) (Homo sapiens, UniProt Q05655). Briefly: Kinome selectivity screen PRKCD. Format: biochemical. The settings on record: 1 μM compound. Here is the method:
as §2, §3

Assay [19] has as its target RPS6KA3 (RSK2) (Homo sapiens, UniProt P51812). The assay is described as follows: Kinome selectivity screen RPS6KA3. In kind it is biochemical. The note with it: 1 μM compound. The method, then:
as §2, §3

PRKCD (PKC delta), sequence (Q05655 whole entry): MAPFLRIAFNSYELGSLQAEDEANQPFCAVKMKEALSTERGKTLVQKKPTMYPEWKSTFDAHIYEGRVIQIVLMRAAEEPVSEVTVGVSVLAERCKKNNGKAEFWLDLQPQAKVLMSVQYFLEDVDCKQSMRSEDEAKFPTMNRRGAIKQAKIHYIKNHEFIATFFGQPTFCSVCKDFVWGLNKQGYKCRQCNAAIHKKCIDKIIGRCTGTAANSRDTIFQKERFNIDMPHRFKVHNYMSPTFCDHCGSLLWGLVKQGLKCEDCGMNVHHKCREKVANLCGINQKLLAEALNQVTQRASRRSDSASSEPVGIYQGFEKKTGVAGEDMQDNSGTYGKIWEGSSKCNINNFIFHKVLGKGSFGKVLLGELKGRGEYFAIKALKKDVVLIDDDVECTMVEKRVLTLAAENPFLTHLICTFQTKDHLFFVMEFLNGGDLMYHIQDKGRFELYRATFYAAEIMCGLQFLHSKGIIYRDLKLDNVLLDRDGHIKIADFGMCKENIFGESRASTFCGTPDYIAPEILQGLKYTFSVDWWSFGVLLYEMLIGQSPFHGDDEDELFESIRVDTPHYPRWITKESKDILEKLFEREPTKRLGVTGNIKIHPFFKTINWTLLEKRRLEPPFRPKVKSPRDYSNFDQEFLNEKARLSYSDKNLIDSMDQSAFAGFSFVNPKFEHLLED
MARK1 (MARK), sequence (Q9P0L2 whole entry): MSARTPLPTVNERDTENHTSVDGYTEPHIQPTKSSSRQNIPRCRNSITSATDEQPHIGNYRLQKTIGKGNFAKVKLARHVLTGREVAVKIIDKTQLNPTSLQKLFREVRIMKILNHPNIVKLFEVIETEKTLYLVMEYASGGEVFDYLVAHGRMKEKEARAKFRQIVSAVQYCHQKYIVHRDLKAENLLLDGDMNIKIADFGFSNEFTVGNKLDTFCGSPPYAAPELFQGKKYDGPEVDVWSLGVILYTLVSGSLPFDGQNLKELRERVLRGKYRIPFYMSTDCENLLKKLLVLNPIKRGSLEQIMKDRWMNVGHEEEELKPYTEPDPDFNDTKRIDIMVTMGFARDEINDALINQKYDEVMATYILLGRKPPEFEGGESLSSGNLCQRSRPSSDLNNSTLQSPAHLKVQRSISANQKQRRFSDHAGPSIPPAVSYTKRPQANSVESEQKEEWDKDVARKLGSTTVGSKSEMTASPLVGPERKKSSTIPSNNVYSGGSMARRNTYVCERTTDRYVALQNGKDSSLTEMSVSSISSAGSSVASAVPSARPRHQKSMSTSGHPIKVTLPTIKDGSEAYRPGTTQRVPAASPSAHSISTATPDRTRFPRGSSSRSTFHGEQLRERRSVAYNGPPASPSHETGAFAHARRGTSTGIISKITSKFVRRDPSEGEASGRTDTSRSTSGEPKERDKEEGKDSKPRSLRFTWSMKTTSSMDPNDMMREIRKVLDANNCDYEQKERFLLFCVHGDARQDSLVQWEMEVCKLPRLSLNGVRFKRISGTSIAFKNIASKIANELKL
MAPK14 (p38 alpha), sequence (Q16539 whole entry): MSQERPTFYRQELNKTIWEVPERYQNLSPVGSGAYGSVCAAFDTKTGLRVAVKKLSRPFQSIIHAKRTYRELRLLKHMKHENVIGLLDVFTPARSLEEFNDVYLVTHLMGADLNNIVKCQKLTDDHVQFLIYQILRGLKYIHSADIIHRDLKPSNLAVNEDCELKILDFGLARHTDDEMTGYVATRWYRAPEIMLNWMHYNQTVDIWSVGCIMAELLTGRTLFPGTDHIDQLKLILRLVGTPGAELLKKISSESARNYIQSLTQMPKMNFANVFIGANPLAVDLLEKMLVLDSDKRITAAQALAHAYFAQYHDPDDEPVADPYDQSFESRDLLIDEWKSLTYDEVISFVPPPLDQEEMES
BTK, sequence (Q06187 whole entry): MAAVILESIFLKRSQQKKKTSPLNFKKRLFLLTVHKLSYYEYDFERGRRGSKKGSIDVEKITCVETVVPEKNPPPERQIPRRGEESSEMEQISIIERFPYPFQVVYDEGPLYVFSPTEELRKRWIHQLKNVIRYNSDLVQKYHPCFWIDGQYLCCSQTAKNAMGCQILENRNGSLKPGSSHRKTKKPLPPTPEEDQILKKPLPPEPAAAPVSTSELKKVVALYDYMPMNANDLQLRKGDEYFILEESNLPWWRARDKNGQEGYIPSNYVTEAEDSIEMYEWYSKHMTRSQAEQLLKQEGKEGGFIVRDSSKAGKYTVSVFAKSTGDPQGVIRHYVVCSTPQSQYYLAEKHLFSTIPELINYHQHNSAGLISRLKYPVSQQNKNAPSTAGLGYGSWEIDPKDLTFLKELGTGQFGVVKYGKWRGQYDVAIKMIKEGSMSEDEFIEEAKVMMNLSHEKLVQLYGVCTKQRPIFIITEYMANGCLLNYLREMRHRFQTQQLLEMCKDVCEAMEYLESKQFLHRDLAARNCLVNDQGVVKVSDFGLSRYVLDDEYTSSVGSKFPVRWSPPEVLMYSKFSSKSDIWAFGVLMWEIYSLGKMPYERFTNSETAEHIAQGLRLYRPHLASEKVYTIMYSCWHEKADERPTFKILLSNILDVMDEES
PKN1 (PRK1), sequence (Q16512 whole entry): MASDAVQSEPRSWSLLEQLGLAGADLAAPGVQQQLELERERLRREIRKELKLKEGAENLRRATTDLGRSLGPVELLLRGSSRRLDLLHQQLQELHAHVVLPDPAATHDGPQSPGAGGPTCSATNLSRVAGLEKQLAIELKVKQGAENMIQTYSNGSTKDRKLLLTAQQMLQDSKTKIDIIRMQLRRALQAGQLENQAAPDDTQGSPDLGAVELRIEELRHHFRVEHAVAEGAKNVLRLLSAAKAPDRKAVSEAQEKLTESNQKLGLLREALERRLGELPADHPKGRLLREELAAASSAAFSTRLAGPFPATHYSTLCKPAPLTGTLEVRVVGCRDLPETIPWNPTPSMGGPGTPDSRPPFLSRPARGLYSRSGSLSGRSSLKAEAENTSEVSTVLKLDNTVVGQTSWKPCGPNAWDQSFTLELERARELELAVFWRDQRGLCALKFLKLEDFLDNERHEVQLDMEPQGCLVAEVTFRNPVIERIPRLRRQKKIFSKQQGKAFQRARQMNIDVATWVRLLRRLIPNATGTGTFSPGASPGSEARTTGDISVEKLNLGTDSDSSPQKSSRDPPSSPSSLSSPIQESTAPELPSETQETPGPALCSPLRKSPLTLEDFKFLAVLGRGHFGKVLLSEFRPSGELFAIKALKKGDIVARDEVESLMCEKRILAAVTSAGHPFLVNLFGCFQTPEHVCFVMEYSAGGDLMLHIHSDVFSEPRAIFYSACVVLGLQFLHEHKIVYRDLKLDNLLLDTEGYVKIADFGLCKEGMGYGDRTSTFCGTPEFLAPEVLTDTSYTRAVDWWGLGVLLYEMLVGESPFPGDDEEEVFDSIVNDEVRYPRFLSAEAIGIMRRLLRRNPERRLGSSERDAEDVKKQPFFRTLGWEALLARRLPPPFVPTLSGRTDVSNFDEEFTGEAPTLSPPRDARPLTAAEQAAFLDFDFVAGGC

As usually defined, the EC50 is the concentration giving half of the maximal effect. The term IC50 denotes the midpoint of a concentration-inhibition curve. Read a low IC50 as inhibition by little substance. In the case of `C=CC(=O)Nc1cccc(-c2n[nH]c3c2CCCC3)c1` [GO4], the EC50 in assay [1] (HEK293, ICW) is 5.2 µM; in [2] (ICW, 2 h pre-incubation), more than 10 µM. Further, in assay [2], the IC50 was 18.2 µM.

What is called inhibition is the drop in the measured response relative to a control, in per cent. In turn, `C=CC(=O)Nc1cccc(-c2n[nH]c3ccccc23)c1` [GO32] had an EC50 in assay [1] (HEK293, ICW) of 2.06 µM. Also, in assay [2], the IC50 is 5.15 µM. In addition, in [3], the “effect on pP38 levels” value is “no effect”. In addition, the “competition of PCM548 binding” value in assay [4] is “able to compete PCM548 binding”. Moreover, the inhibition at 1 µM in [5] was 2%; in assay [6], 11%; in [7] it was 19%; in [8], -10%; in [9], -3%; in [10] it was -10%. Also, the inhibition at 1 µM was 5% in assay [11]; 95% in assay [12]; -7% in assay [13]; 58% in assay [14]; 9% in [15]; 14% in assay [16]. In addition, the inhibition at 1 µM in assay [17] amounted to 4%; in [18], 9%; in assay [19] it was 2%.

On to `C=CC(=O)Nc1cccc(-c2n[nH]c3cc(C)ccc23)c1` [GO80], for which the EC50 in assay [1] (HEK293, ICW) is 1.3 µM and 0.8 µM; in assay [1] (Homo sapiens, HEK293, HEK293, ICW), 1.26 µM. This molecule also yielded an IC50 in assay [2] of 4.05 µM. Besides, in [3], the “effect on pP38 levels” value is given as “did not affect”. Besides, the “competition of PCM548 binding” value in [4] is “able to compete PCM548 binding”. Further, the inhibition at 1 µM was 1% in assay [5]; 15% in assay [6]; 22% in assay [7]; -8% in assay [8]; -5% in [9]; -7% in assay [10]. Further, the inhibition at 1 µM in assay [11] is 5%; in assay [12], 94%; in assay [13], -12%; in assay [14], 42%; in assay [15], 16%; in assay [16], 4%. The values for the inhibition at 1 µM in assay [17], in assay [18] and in assay [19] were 1%, 7% and -1%, respectively.
